According to patent US20150305367A1, “FROZEN CONFECTION” (CONOPCO, INC., D/B/A UNILEVER, priority 2012, published 2015):

Columns and labels:
[1] = target: T1, recombinant human MAO-B (Homo sapiens, UniProt P27338); experiment: MAO-Glo chemiluminescent MAO-B inhibition assay; format: biochemical; settings: for inhibition at 100 µM: test concentration 100 μM; for inhibition at 100 µM / inhibition at 1 µM / inhibition at 10 µM: mean ± standard deviation, triplicate, 90 min incubation; for MAO-B inhibition (Yes/No): overall verdict over 1, 10 and 100 μM; for inhibition at 1 µM: test concentration 1 μM; for inhibition at 10 µM: test concentration 10 μM;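 as to all read-outs here: MAO-B from microsomes of baculovirus-infected insect cells, luciferin-based luminescence read-out, inhibition relative to enzyme activity with DMSO vehicle alone and no inhibitor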
T1 construct: purchased Sigma-Aldrich; host or cells: baculovirus-infected insect cells (microsomes)
T1 sequence (P27338 1-520): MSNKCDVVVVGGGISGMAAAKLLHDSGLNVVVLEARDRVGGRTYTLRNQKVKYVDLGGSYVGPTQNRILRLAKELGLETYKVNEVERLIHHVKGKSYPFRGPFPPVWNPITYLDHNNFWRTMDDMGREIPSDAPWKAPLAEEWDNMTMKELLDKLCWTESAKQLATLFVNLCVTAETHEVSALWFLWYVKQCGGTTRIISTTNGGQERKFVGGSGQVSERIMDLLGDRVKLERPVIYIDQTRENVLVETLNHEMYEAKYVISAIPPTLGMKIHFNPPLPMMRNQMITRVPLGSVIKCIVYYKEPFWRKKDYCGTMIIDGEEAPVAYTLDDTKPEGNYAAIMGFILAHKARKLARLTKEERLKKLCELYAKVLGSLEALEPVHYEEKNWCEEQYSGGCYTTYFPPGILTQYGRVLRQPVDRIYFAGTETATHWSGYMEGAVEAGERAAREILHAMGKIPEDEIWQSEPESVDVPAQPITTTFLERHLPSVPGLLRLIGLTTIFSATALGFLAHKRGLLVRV

[2] = measured in vivo in rat brain; cited from earlier work

| Compound | inhibition at 100 µM [1] [%] | MAO-B inhibition (Yes/No) [1] | inhibition at 1 µM [1] [%] | inhibition at 10 µM [1] [%] | endogenous pool half-life [2] |
| --- | --- | --- | --- | --- | --- |
| COc1cc(C=O)ccc1O [Vanillin] | 19 ± 5.6 |  |  |  |  |
| COc1ccccc1O [2-Methoxyphenol] | 0 | No | 0 | 0 |  |
| CCOc1cc(C=O)ccc1O [Ethyl vanillin] | 4 ± 5.3 | No | 0 | 0 |  |
| O=C(O)c1ccc(O)cc1 [4-Hydroxybenzoic acid] | 11 ± 5.7 | No | 13 ± 3.2 | 9 ± 5.2 |  |
| C=CCc1ccc(O)c(OC)c1 [Eugenol] | 0 | No | 0 | 4 ± 4.6 |  |
| COc1cc(C(=O)O)ccc1O [Vanillic acid] | 11 ± 3.3 | No | 6 ± 4.2 | 5 ± 7.3 |  |
| COc1ccc(C=O)cc1OC [Veratraldehyde] | 0 | No | 1 ± 1.5 | 2 ± 6.6 |  |
| O=Cc1ccc2c(c1)OCO2 [Piperonal] | 100 | Yes | 10 ± 2.9 | 53 ± 4 |  |
| COc1cc(CO)ccc1O [Vanillyl Alcohol] | 6 ± 5.1 | No | 2 ± 4 | 9 ± 3 |  |
| O=Cc1ccc(O)cc1 [4-Hydroxybenzaldehyde] | 27 ± 5.1 | Yes | 10 ± 3.2 | 6 ± 4.7 |  |
| NCCc1ccccc1 [phenylethylamine, Phenylethylamine] |  |  |  |  | approximately 30 s |
| OCc1ccc(O)cc1 [4-Hydroxybenzyl alcohol] | 6 ± 8.1 | No | 1 ± 7.9 | 0 |  |
| COc1cc(/C=C/C(=O)O)ccc1O [Ferulic acid] | 4 ± 7 | No | 4 ± 1.2 | 9 ± 1.7 |  |
| CC1=C(O)C(=O)C(C)O1 (stereo not drawn) [4-Hydroxy-2,5-dimethyl-3(2H)-furanone] | 7 ± 11.7 | No | 0 | 9 ± 3.3 |  |
| O=C(O)/C=C/c1ccc(O)cc1 [Coumaric acid] | 17 ± 7.3 |  | 11 ± 4.2 | 16 ± 2.8 |  |
| O=C(/C=C/c1ccccc1)OCc1ccccc1 [Benzyl cinnamate] | 100 | Yes | 10 ± 6.4 | 63 ± 3.1 |  |
| CC(=O)C(C)O (stereo not drawn) [3-Hydroxy-2-butanone] | 7 ± 3.4 | No | 11 ± 4.2 | 6 ± 5.2 |  |
| COc1ccc(C=O)cc1 [4-Methoxybenzaldehyde] | 75 ± 1.9 | Yes | 0 | 11 ± 3.8 |  |
| O=Cc1ccc(O)c(O)c1 [3,4-Dihydroxybenzaldehyde] | 9 ± 3.6 | No | 0 | 4 ± 5.1 |  |
